Laboratory results reported in publication PMC3726784, “Synthesis, Structure and Antibacterial Activity of Potent DNA Gyrase Inhibitors: N′-Benzoyl-3-(4-Bromophenyl)-1H-Pyrazole-5-Carbohydrazide Derivatives” (PLoS ONE, 2013).
Values after ≈ are worked out from the molar mass of the structure shown.

Key:
[1] = tested on: Bacillus subtilis ATCC 6633; experiment: In vitro antibacterial assay (MIC, MTT colorimetric method); format: cell-based; details: B. subtilis ATCC 6633, MH medium, 37°C; for MIC: Bacillus subtilis, ATCC6633, 24 h, read-out: Minimum inhibitory concentrations, B. subtilis
Procedure: (§1) The activities of synthesized compounds were tested against Bacillus subtilis ATCC 6633, Escherichia coli ATCC 35218, Pseudomonas aeruginosa ATCC 27853 and Staphylococcus aureus ATCC 6538 which may be causal agents of some serious infections in humans using MH medium (Mueller-Hinton medium: casein hydrolysate 17.5 g, soluble starch 1.5 g, beef extract 1000 mL). Also included are the activities of reference compounds kanamycin.
(§2) The antibacterial activity of the synthesized compounds was tested against B. subtilis, E. coli, P. aeruginosa and S. aureus using MH medium (Mueller-Hinton medium: casein hydrolysate 17.5 g, soluble starch 1.5 g, beef extract 1000 mL). The MICs (minimum inhibitory concentrations) of the test compounds were determined by a colorimetric method using the dye MTT (3-(4,5-dimethylth-iazol-2-yl)-2,5-diphenyl tetrazoliumbromide). A stock solution of the synthesized compound (100 µg/mL) in DMSO was prepared and graded quantities of the test compounds were incorporated in specified quantity of sterilized liquid MH medium. A specified quantity of the medium containing the compound was poured into microtitration plates. Suspension of the microorganism was prepared to contain approximately 10^5 cfu/mL and applied to microtitration plates with serially diluted compounds in DMSO to be tested and incubated at 37°C for 24 h. After the MICs were visually determined on each of the microtitration plates, 50 µL of PBS (phosphate buffered saline 0.01 mol/L, pH 7.4, Na2HPO4·12H2O 2.9 g, KH2PO4 0.2 g, NaCl 8.0 g, KCl 0.2 g, distilled water 1000 mL) containing 2 mg of MTT/mL was added to each well. Incubation was continued at room temperature for 4–5 h. The content of each well was removed, and 100 µL of isopropanol containing 5% 1 mol/L HCl was added to extract the dye. After 12 h of incubation at room temperature, the optical density (OD) was measured with a microplate reader at 550 nm.

[2] = tested on: Pseudomonas aeruginosa ATCC 27853; experiment: as above; format: cell-based; details: P. aeruginosa ATCC 27853, MH medium, 37°C, 24 h; for MIC: Pseudomonas aeruginosa, ATCC27853, read-out: Minimum inhibitory concentrations, P.aeruginosa
Procedure: as §1, §2

[3] = tested on: Escherichia coli ATCC 35218; experiment: as above; format: cell-based; details: E. coli ATCC 35218, MH medium, 37°C, 24 h; for MIC: Escherichia coli, ATCC35218, read-out: Minimum inhibitory concentrations, E. coli
Procedure: as §1, §2

[4] = tested on: Staphylococcus aureus ATCC 6538; experiment: as above; format: cell-based; details: S. aureus ATCC 6538, MH medium, 37°C, 24 h; for MIC: Staphylococcus aureus, ATCC6538, read-out: Minimum inhibitory concentrations, S. aureus
Procedure: as §1, §2

B. subtilis DNA gyrase = B. subtilis DNA gyrase (Bacillus subtilis, UniProt P05652); experiment: biochemical
B. subtilis DNA gyrase, sequence (P05652 whole entry): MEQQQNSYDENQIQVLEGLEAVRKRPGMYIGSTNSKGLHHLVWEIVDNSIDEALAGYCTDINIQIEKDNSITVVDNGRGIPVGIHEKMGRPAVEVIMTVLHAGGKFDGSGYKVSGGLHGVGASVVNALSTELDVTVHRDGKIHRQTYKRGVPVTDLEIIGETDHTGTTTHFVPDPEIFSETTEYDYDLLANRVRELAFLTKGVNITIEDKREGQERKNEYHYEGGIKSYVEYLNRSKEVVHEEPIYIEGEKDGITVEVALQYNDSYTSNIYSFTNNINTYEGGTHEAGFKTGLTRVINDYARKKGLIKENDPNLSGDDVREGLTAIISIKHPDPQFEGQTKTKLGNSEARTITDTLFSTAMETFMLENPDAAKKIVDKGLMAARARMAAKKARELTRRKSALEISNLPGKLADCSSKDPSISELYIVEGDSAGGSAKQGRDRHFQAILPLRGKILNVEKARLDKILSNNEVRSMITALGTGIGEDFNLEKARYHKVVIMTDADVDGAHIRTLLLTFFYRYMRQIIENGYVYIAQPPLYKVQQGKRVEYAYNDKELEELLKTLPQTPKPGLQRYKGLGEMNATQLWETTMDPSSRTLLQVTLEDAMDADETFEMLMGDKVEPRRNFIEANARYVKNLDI
B. subtilis DNA gyrase, sequence (P05653 whole entry, further chain): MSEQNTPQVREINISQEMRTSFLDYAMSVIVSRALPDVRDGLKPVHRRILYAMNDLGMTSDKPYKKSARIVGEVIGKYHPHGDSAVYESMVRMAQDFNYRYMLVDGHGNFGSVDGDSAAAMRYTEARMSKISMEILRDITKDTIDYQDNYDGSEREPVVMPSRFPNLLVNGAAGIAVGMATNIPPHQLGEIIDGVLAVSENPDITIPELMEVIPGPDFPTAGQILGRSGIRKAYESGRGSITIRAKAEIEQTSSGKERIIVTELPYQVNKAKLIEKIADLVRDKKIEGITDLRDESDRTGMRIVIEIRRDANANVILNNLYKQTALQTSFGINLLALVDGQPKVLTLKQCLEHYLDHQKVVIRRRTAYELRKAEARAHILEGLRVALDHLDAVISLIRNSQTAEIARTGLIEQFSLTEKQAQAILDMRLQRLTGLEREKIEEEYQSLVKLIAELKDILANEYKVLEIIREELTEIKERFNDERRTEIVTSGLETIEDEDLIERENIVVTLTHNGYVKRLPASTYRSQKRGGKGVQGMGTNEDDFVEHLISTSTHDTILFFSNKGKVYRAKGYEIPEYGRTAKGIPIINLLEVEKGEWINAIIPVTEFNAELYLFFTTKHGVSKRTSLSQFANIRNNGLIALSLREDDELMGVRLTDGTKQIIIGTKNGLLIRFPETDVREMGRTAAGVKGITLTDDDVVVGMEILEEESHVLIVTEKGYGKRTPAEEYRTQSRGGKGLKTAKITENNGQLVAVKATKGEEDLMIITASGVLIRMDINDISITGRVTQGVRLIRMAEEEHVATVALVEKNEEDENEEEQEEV
Procedure: (§3) To elucidate the mechanism by which the pyrazole derivatives induce antibacterial activity, the inhibitory activities of selected compounds were examined against DNA gyrase isolated from B. subtilis and S. aureus.
The B. subtilis DNA gyrase were purified by the methods of E. Orr.: Cells were suspended in an equal volume of 25 mM HEPES-KOH (pH 8.0)-100 mM KCl and stored frozen at −70°C. The frozen cell suspension was thawed and diluted with an equal volume of 25 mM HEPES-KOH (pH 8.0)-0.4 M sucrose-20 mM magnesium acetate-1 mM dithiothreitol-5 mM PMSF. All operations were performed at 0–4°C. Lysozyme was added to a final concentration, and the mixture was incubated for 2.5 h. One-third volume of 2 M KCl-1.5% Brij was added, and the incubation was continued for 15 min. The lysate was then centrifuged for 90 min intirotor. The supernatant was adjusted to a KCl concentration of 0.2 M by dilution with 25 mM HEPES-KOH (pH 8.0)-1 mM dithiothreitol-1mMEDTA-0.5 mM pmsf-10% ethylene glycol and applied to a column. The column was washed with starting buffer and eluted successively with buffer containing 20 mM ATP-25 mM magnesium acetate-0.2 M KCI, buffer (2 M KCI), and 5 M urea in buffer (0.2 M KCl).Protein-containing fractions were dialyzed against buffer (0.05 MKCI). Supercoiling and decatenation were carried out by the F. Blanche method.

S. aureus DNA gyrase = biological target: T1, S. aureus DNA gyrase (Staphylococcus aureus, UniProt P0A0K8); experiment: biochemical; details: enzyme purified from S. aureus, supercoiling
T1 construct: purified by the F. Blanche [25] from a crude extract of S. aureus; endogenous in cells
T1 sequence (P0A0K8 whole entry): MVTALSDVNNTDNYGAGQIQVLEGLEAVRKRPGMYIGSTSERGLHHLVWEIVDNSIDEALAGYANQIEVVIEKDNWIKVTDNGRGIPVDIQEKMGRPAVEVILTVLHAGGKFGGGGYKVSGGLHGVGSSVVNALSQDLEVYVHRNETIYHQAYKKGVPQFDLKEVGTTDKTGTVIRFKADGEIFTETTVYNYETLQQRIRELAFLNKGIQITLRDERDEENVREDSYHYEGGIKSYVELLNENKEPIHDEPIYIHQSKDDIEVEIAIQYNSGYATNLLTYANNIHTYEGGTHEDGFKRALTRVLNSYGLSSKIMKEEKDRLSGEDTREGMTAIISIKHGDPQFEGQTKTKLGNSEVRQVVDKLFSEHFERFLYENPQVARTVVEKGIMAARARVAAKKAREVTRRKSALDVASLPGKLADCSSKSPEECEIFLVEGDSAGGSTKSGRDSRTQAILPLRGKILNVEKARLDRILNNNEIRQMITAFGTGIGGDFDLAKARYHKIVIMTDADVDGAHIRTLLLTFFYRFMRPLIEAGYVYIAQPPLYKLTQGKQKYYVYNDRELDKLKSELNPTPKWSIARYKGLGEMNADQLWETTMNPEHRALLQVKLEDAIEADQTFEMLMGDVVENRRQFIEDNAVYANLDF
T1 sequence (P20831 whole entry partner): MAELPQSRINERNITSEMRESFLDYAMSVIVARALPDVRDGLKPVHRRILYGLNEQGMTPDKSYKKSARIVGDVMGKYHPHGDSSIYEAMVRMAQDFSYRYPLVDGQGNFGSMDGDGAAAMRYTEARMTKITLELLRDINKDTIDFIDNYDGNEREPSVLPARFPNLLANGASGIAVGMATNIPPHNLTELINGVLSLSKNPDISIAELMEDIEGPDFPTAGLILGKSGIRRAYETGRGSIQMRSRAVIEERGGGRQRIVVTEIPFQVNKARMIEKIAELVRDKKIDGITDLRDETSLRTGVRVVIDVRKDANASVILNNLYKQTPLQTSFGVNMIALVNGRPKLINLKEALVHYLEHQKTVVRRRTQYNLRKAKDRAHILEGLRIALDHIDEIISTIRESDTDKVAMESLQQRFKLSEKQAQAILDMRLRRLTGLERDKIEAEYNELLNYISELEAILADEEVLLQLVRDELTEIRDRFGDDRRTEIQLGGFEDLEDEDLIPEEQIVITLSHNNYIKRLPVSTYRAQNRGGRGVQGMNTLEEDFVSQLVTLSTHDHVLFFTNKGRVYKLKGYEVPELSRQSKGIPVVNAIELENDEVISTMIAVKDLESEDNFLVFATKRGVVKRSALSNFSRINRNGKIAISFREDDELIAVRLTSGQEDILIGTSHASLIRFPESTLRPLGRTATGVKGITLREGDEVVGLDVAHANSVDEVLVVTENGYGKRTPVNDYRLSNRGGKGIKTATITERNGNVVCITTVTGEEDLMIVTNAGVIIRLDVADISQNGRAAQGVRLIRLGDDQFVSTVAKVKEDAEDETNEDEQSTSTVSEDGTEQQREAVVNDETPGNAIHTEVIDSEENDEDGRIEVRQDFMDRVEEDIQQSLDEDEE
Excerpt: as §3
The S. aureus DNA gyrase were purified by the F. Blanche from a crude extract of S. aureus and cultivated with medium B, which was composed of 10 g of polypeptone, 2 g of yeast extract, 8 g of Na2HPO4, 2 g of KH2PO4, 1.2 g of (NH4)2SO4, 0.2 g of MgSO4, 4 g of glucose perliter of distilled water. Supercoiling and decatenation were performed according to F. B lanche.

Row | Compound | melting point | MIC [1] | MIC [2] | MIC [3] | MIC [4] | IC50 (B. subtilis DNA gyrase) | IC50 (S. aureus DNA gyrase) | Minimum inhibitory concentrations, B. subtilis ([1]; 24 h) | Minimum inhibitory concentrations, P.aeruginosa [2] | Minimum inhibitory concentrations, E. coli [3] | Minimum inhibitory concentrations, S. aureus [4]
1 | O=C(NNC(=O)c1cc(-c2ccc(Br)cc2)n[nH]1)c1ccc(F)cc1 [3a, 3-(4-Bromophenyl)-N'-(4-fluorobenzoyl)-1H-pyrazole-5-carbohydrazide] | 284 to 287 °C | 12.5 µg/mL (≈ 31.1 µM) | 50 µg/mL (≈ 124 µM) | > 50 µg/mL | 15 µg/mL (≈ 37.2 µM) | – | – | – | – | – | –
2 | O=C(NNC(=O)c1cc(-c2ccc(Br)cc2)n[nH]1)c1ccc(Cl)cc1 [3b, 3-(4-Bromophenyl)-N'-(4-chlorobenzoyl)-1H-pyrazole-5-carbohydrazide] | 280 to 283 °C | 17.1 µg/mL (≈ 40.8 µM) | 50 µg/mL (≈ 119 µM) | > 50 µg/mL | 15 µg/mL (≈ 35.7 µM) | – | – | – | – | – | –
3 | O=C(NNC(=O)c1cc(-c2ccc(Br)cc2)n[nH]1)c1ccc(Br)cc1 [3c, N'-(4-Bromobenzoyl)-3-(4-bromophenyl)-1H-pyrazole-5-carbohydrazide] | 297 to 298 °C | 10.2 µg/mL (≈ 22 µM) | 50 µg/mL (≈ 108 µM) | > 50 µg/mL | 13.8 µg/mL (≈ 29.7 µM) | – | – | – | – | – | –
4 | Cc1ccc(C(=O)NNC(=O)c2cc(-c3ccc(Br)cc3)n[nH]2)cc1 [3d, 3-(4-Bromophenyl)-N'-(4-methylbenzoyl)-1H-pyrazole-5-carbohydrazide] | 270 to 272 °C | – | 12.5 µg/mL (≈ 31.3 µM) | 50 µg/mL (≈ 125 µM) | 3.66 µg/mL (≈ 9.17 µM) | 6.51 µM | 3.76 µM | – | – | – | –
5 | COc1ccc(C(=O)NNC(=O)c2cc(-c3ccc(Br)cc3)n[nH]2)cc1 [3e, 3-(4-Bromophenyl)-N'-(4-methoxybenzoyl)-1H-pyrazole-5-carbohydrazide] | 281 to 282 °C | 10.1 µg/mL (≈ 24.4 µM) | 12.5 µg/mL (≈ 30.1 µM) | 50 µg/mL (≈ 120 µM) | 6.68 µg/mL (≈ 16.1 µM) | 29.5 µM | 8.19 µM | – | – | – | –
6 | O=C(NNC(=O)c1cc(-c2ccc(Br)cc2)n[nH]1)c1ccc([N+](=O)[O-])cc1 [3f, 3-(4-Bromophenyl)-N'-(4-nitrobenzoyl)-1H-pyrazole-5-carbohydrazide] | 255 to 257 °C | 25 µg/mL (≈ 58.1 µM) | > 50 µg/mL | > 50 µg/mL | 18 µg/mL (≈ 41.9 µM) | – | – | – | – | – | –
7 | O=C(NNC(=O)c1cc(-c2ccc(Br)cc2)n[nH]1)c1cccc(F)c1 [3g, 3-(4-Bromophenyl)-N'-(3-fluorobenzoyl)-1H-pyrazole-5-carbohydrazide] | 278 to 280 °C | 25 µg/mL (≈ 62 µM) | 50 µg/mL (≈ 124 µM) | > 50 µg/mL | 13 µg/mL (≈ 32.2 µM) | – | – | – | – | – | –
8 | O=C(NNC(=O)c1cc(-c2ccc(Br)cc2)n[nH]1)c1cccc(Cl)c1 [3h, 3-(4-Bromophenyl)-N'-(3-chlorobenzoyl)-1H-pyrazole-5-carbohydrazide] | 246 to 248 °C | 6.25 µg/mL (≈ 14.9 µM) | 50 µg/mL (≈ 119 µM) | > 50 µg/mL | 12.6 µg/mL (≈ 29.9 µM) | – | – | – | – | – | –
9 | O=C(NNC(=O)c1cc(-c2cccc(Br)c2)n[nH]1)c1ccc(Br)cc1 [3i, N'-(4-Bromobenzoyl)-3-(3-bromophenyl)-1H-pyrazole-5-carbohydrazide] | 229 to 231 °C | 12.6 µg/mL (≈ 27.1 µM) | 50 µg/mL (≈ 108 µM) | > 50 µg/mL | 12.1 µg/mL (≈ 26.1 µM) | – | – | – | – | – | –
10 | Cc1cccc(C(=O)NNC(=O)c2cc(-c3ccc(Br)cc3)n[nH]2)c1 [3j, 3-(4-Bromophenyl)-N'-(3-methylbenzoyl)-1H-pyrazole-5-carbohydrazide] | 287 to 288 °C | – | 12.5 µg/mL (≈ 31.3 µM) | 50 µg/mL (≈ 125 µM) | 1.12 µg/mL (≈ 2.81 µM) | 8.14 µM | 0.326 µM | – | – | – | –
11 | COc1cccc(C(=O)NNC(=O)c2cc(-c3ccc(Br)cc3)n[nH]2)c1 [3k, 3-(4-Bromophenyl)-N'-(3-methoxybenzoyl)-1H-pyrazole-5-carbohydrazide] | 251 to 253 °C | – | 12.5 µg/mL (≈ 30.1 µM) | 50 µg/mL (≈ 120 µM) | 0.78 µg/mL (≈ 1.88 µM) | 0.602 µM | 0.361 µM | – | – | – | –
12 | O=C(NNC(=O)c1cc(-c2ccc(Br)cc2)n[nH]1)c1cccc([N+](=O)[O-])c1 [3l, 3-(4-Bromophenyl)-N'-(3-nitrobenzoyl)-1H-pyrazole-5-carbohydrazide] | 275 to 276 °C | 10.8 µg/mL (≈ 25.1 µM) | 50 µg/mL (≈ 116 µM) | > 50 µg/mL | 10.8 µg/mL (≈ 25.1 µM) | – | – | – | – | – | –
13 | O=C(NNC(=O)c1ccccc1F)c1cc(-c2ccc(Br)cc2)n[nH]1 [3m, 3-(4-Bromophenyl)-N'-(2-fluorobenzoyl)-1H-pyrazole-5-carbohydrazide] | 297 to 298 °C | 25 µg/mL (≈ 62 µM) | > 50 µg/mL | > 50 µg/mL | 22.1 µg/mL (≈ 54.8 µM) | – | – | – | – | – | –
14 | O=C(NNC(=O)c1ccccc1Cl)c1cc(-c2ccc(Br)cc2)n[nH]1 [3n, 3-(4-Bromophenyl)-N'-(2-chlorobenzoyl)-1H-pyrazole-5-carbohydrazide] | 280 to 281 °C | 12.2 µg/mL (≈ 29.2 µM) | > 50 µg/mL | > 50 µg/mL | 17 µg/mL (≈ 40.4 µM) | – | – | – | – | – | –
15 | O=C(NNC(=O)c1cc(-c2ccccc2Br)n[nH]1)c1ccc(Br)cc1 [3o, N'-(4-Bromobenzoyl)-3-(2-bromophenyl)-1H-pyrazole-5-carbohydrazide] | 281 to 283 °C | 23.1 µg/mL (≈ 49.8 µM) | > 50 µg/mL | > 50 µg/mL | 21 µg/mL (≈ 45.2 µM) | – | – | – | – | – | –
16 | Cc1ccccc1C(=O)NNC(=O)c1cc(-c2ccc(Br)cc2)n[nH]1 [3p, 3-(4-Bromophenyl)-N'-(2-methylbenzoyl)-1H-pyrazole-5-carbohydrazide] | 292 to 294 °C | 12.2 µg/mL (≈ 30.4 µM) | 12.5 µg/mL (≈ 31.3 µM) | 50 µg/mL (≈ 125 µM) | 8.08 µg/mL (≈ 20.2 µM) | 1.25 µM | 13 µM | – | – | – | –
17 | COc1ccccc1C(=O)NNC(=O)c1cc(-c2ccc(Br)cc2)n[nH]1 [3q, 3-(4-Bromophenyl)-N'-(2-methoxybenzoyl)-1H-pyrazole-5-carbohydrazide] | 287 to 290 °C | 20.6 µg/mL (≈ 49.6 µM) | > 50 µg/mL | > 50 µg/mL | 18.7 µg/mL (≈ 45.1 µM) | – | – | – | – | – | –
18 | O=C(NNC(=O)c1ccccc1[N+](=O)[O-])c1cc(-c2ccc(Br)cc2)n[nH]1 [3r, 3-(4-Bromophenyl)-N'-(2-nitrobenzoyl)-1H-pyrazole-5-carbohydrazide] | 266 to 267 °C | 50 µg/mL (≈ 116 µM) | > 50 µg/mL | > 50 µg/mL | 25 µg/mL (≈ 58.1 µM) | – | – | – | – | – | –
19 | O=C(NNC(=O)c1cc(-c2ccc(Br)cc2)n[nH]1)c1ccccc1 [3s, N'-Benzoyl-3-(4-bromophenyl)-1H-pyrazole-5-carbohydrazide] | 288 to 290 °C | 10.6 µg/mL (≈ 27.4 µM) | 12.5 µg/mL (≈ 32.4 µM) | 12.5 µg/mL (≈ 32.4 µM) | 10.6 µg/mL (≈ 27.4 µM) | 2.6 µM | 8.44 µM | – | – | – | –
20 | Penicillin [reference compound] | – | – | – | – | – | – | – | 1.56 µg/mL | 6.25 µg/mL | 6.25 µg/mL | 1.56 µg/mL
